Data as given in ChEMBL document CHEMBL4765228, “Indole-like Trk receptor antagonists” (Eur J Med Chem, 2016).

Legend:
Homo sapiens [1] = species: Homo sapiens; experiment: Inhibition of human S6K assessed as residual activity at 1 uM relative to control
[2] = target: T1, Serine/threonine-protein kinase Sgk1 (Homo sapiens) (UniProt O00141); experiment: Inhibition of human SGK1 assessed as residual activity at 1 uM relative to control
T1 sequence (whole entry): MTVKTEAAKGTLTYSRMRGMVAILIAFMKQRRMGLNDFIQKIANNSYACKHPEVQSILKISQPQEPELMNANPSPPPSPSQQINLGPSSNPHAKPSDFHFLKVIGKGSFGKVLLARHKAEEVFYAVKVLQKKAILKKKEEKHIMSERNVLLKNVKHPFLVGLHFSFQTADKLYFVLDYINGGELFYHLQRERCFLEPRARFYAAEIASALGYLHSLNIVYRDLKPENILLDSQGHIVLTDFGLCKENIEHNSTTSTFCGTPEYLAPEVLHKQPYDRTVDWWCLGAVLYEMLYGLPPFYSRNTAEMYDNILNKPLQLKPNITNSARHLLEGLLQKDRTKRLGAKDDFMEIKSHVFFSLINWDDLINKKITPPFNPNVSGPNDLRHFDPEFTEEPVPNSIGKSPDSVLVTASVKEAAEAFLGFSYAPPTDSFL

[3] = target: Tyrosine-protein kinase Lck (Homo sapiens) (UniProt P06239); experiment: Inhibition of human LCK assessed as residual activity at 0.1 uM relative to control
[4] = target: Receptor-interacting serine/threonine-protein kinase 2 (Homo sapiens) (UniProt O43353); experiment: Inhibition of human RIPK2 assessed as residual activity at 0.1 uM relative to control
[5] = target: Serine/threonine-protein kinase Nek6 (Homo sapiens) (UniProt Q9HC98); experiment: Inhibition of human NEK6 assessed as residual activity at 1 uM relative to control
[6] = target: Homeodomain-interacting protein kinase 2 (Homo sapiens) (UniProt Q9H2X6); experiment: Inhibition of human HIPK2 assessed as residual activity at 1 uM relative to control
[7] = target: Serine/threonine-protein kinase Chk2 (Homo sapiens) (UniProt O96017); experiment: Inhibition of human CHK2 assessed as residual activity at 0.1 uM relative to control
[8] = target: T2, Dual specificity protein kinase TTK (Homo sapiens) (UniProt P33981); experiment: Inhibition of human TTK assessed as residual activity at 0.1 uM relative to control
T2 sequence (whole entry): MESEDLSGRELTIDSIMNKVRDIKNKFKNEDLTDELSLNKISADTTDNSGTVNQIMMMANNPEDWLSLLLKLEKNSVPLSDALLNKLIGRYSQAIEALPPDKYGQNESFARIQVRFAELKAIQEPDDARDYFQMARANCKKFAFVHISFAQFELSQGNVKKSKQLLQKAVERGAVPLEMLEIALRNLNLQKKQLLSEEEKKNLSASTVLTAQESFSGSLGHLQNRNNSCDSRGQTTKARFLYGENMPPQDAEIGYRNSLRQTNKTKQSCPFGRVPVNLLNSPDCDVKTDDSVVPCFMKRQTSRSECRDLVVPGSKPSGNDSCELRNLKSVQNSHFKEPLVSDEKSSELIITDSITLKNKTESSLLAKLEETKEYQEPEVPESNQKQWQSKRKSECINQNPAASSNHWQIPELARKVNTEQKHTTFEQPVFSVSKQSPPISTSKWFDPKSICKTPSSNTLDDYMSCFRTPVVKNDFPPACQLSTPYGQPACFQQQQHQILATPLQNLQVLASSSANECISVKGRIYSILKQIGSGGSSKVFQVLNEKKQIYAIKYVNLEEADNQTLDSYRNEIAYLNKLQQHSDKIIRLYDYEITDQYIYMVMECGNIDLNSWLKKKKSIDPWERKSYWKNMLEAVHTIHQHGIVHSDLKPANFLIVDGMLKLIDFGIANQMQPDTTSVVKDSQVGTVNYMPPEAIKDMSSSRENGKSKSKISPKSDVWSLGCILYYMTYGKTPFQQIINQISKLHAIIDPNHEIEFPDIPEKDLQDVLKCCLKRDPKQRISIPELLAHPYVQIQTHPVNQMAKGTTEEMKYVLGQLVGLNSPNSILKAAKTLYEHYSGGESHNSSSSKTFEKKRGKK

[9] = target: RAC-alpha serine/threonine-protein kinase (Homo sapiens) (UniProt P31749); experiment: Inhibition of human AKT1 (104 to 408 residues) assessed as residual activity at 1 uM relative to control
[10] = target: Aurora kinase B (Homo sapiens) (UniProt Q96GD4); experiment: Inhibition of human Aurora-B assessed as residual activity at 0.1 uM relative to control
[11] = target: T1, Serine/threonine-protein kinase Sgk1 (Homo sapiens); experiment: Inhibition of human SGK1 assessed as residual activity at 0.1 uM relative to control
[12] = target: Tyrosine-protein kinase JAK2 (Homo sapiens) (UniProt O60674); experiment: Inhibition of human JAK2 assessed as residual activity at 0.1 uM relative to control
[13] = target: T3, Mitogen-activated protein kinase kinase kinase 7 (Homo sapiens) (UniProt O43318); experiment: Inhibition of human MAP3K7 assessed as residual activity at 1 uM relative to control
T3 sequence (whole entry): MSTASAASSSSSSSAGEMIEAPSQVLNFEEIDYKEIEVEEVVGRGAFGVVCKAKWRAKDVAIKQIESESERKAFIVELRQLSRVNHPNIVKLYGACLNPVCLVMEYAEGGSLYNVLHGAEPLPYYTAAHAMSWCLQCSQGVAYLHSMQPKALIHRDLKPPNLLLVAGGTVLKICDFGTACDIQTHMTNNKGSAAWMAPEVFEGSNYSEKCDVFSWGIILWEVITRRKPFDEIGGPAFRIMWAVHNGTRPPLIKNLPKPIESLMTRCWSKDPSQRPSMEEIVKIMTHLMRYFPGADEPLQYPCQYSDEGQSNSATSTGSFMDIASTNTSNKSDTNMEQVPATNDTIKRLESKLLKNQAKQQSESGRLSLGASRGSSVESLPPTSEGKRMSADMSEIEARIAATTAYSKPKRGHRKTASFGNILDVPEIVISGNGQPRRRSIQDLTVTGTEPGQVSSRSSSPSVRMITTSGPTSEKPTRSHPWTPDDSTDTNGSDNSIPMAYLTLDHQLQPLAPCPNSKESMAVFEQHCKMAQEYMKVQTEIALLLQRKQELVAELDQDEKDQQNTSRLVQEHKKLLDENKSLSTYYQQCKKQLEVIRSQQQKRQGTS

Homo sapiens [14] = species: Homo sapiens; experiment: Inhibition of human S6K assessed as residual activity at 0.1 uM relative to control
[15] = target: Serine/threonine-protein kinase PLK1 (Homo sapiens) (UniProt P53350); experiment: Inhibition of human PLK1 assessed as residual activity at 0.1 uM relative to control
[16] = target: Serine/threonine-protein kinase Chk2 (Homo sapiens) (UniProt O96017); experiment: Inhibition of human CHK2 assessed as residual activity at 1 uM relative to control
[17] = target: Mitogen-activated protein kinase 14 (Homo sapiens) (UniProt Q16539); experiment: Inhibition of human p38-alpha assessed as residual activity at 1 uM relative to control
Sequence of Mitogen-activated protein kinase 14 (Homo sapiens) (Q16539 whole entry): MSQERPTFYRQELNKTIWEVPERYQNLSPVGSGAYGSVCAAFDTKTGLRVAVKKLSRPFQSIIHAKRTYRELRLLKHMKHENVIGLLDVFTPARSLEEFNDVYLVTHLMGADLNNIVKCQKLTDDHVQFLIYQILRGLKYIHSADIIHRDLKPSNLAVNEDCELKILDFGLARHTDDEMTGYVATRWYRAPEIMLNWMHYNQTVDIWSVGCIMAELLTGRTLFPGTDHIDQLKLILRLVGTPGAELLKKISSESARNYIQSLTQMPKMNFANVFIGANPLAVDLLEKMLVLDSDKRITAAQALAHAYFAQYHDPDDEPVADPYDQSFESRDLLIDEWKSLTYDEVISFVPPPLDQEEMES

Sequence of Homeodomain-interacting protein kinase 2 (Homo sapiens) (Q9H2X6 whole entry, looked up): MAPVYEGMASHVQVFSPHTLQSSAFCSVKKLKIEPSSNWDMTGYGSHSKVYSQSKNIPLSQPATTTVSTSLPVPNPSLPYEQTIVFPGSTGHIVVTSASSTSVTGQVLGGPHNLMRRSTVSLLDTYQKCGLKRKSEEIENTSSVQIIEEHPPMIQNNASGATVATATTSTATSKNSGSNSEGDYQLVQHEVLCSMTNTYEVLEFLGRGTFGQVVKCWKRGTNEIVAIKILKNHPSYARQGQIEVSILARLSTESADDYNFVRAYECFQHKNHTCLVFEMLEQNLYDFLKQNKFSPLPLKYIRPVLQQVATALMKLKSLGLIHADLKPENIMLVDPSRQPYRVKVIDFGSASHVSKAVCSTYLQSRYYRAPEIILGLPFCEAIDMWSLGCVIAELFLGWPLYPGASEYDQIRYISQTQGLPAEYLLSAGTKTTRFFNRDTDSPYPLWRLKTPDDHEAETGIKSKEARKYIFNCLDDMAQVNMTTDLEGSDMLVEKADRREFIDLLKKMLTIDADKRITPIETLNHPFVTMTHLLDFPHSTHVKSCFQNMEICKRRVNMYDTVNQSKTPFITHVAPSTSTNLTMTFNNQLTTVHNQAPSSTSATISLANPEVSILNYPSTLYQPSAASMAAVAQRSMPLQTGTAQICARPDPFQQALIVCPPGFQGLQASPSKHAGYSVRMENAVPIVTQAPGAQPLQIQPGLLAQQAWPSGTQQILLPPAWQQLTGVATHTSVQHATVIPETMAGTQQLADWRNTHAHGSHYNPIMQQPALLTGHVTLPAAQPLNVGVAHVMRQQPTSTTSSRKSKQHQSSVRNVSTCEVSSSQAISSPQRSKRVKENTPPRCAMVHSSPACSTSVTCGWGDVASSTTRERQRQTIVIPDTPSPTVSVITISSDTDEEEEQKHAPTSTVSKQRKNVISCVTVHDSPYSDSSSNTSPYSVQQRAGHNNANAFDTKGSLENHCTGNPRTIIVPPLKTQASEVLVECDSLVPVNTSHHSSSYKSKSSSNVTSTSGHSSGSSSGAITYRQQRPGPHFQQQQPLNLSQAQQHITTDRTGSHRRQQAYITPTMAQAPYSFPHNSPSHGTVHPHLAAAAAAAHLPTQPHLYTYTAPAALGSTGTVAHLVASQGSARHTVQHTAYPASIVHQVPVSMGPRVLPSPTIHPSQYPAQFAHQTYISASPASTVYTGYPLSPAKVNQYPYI
Sequence of Serine/threonine-protein kinase Nek6 (Homo sapiens) (Q9HC98 whole entry): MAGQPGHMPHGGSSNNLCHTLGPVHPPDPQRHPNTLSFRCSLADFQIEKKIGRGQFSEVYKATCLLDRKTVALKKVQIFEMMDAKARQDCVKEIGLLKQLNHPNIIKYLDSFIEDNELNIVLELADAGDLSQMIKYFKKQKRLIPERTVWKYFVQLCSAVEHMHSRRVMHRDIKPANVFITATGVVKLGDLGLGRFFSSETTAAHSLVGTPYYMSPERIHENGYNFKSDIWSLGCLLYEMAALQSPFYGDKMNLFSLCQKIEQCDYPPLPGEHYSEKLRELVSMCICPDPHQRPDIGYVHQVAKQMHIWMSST
Sequence of Serine/threonine-protein kinase Chk2 (Homo sapiens) (O96017 whole entry): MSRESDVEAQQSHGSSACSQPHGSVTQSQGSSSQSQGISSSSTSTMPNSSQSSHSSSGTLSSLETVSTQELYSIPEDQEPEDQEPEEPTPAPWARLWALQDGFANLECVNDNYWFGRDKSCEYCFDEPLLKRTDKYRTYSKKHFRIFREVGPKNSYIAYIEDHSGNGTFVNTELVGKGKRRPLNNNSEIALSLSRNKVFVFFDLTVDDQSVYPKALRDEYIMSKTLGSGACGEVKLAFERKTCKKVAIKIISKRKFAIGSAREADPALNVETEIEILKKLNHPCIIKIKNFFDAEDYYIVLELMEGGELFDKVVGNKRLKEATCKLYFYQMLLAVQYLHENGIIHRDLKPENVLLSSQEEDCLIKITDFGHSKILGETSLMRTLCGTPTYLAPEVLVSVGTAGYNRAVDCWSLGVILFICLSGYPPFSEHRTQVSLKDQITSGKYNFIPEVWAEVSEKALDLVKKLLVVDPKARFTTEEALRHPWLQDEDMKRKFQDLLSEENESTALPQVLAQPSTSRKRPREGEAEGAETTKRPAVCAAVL
Sequence of Aurora kinase B (Homo sapiens) (Q96GD4 whole entry): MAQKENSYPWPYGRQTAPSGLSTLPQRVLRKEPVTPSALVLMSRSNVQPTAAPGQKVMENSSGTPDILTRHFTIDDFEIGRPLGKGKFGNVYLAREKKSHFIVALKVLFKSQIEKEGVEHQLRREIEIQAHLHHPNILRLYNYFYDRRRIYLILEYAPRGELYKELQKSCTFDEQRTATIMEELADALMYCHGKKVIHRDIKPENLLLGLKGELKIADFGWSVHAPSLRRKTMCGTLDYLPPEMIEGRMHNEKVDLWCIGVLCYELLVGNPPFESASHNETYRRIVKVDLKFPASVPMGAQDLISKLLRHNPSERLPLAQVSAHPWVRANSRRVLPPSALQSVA
Sequence of Receptor-interacting serine/threonine-protein kinase 2 (Homo sapiens) (O43353 whole entry): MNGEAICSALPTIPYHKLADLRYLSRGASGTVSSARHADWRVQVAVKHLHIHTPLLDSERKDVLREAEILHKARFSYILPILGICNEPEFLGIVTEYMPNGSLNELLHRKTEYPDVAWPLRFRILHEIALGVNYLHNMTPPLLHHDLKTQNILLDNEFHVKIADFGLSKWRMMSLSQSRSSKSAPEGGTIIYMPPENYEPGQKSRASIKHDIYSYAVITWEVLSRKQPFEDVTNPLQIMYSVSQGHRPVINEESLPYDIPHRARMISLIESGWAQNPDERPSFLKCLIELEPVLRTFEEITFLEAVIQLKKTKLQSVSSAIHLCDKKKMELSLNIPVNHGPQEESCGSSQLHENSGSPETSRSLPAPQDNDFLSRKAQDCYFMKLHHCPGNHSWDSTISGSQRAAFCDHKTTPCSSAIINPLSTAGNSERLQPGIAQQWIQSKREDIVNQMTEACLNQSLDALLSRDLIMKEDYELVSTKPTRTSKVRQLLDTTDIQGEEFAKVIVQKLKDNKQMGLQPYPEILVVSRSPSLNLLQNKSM
Sequence of RAC-alpha serine/threonine-protein kinase (Homo sapiens) (P31749 whole entry, the tested form may be a part): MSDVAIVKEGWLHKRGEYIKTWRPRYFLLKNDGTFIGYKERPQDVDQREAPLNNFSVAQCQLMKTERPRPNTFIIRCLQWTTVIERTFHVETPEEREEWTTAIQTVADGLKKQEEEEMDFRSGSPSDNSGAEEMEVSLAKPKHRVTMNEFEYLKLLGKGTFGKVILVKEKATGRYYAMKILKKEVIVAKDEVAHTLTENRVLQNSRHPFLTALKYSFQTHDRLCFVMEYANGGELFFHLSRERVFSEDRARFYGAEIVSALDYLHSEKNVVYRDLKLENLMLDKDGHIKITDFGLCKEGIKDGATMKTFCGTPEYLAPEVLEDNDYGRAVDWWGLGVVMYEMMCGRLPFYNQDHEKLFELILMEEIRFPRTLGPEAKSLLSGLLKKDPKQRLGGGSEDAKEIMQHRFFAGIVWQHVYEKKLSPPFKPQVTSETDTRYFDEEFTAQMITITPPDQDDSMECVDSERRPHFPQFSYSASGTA
Sequence of Tyrosine-protein kinase JAK2 (Homo sapiens) (O60674 whole entry): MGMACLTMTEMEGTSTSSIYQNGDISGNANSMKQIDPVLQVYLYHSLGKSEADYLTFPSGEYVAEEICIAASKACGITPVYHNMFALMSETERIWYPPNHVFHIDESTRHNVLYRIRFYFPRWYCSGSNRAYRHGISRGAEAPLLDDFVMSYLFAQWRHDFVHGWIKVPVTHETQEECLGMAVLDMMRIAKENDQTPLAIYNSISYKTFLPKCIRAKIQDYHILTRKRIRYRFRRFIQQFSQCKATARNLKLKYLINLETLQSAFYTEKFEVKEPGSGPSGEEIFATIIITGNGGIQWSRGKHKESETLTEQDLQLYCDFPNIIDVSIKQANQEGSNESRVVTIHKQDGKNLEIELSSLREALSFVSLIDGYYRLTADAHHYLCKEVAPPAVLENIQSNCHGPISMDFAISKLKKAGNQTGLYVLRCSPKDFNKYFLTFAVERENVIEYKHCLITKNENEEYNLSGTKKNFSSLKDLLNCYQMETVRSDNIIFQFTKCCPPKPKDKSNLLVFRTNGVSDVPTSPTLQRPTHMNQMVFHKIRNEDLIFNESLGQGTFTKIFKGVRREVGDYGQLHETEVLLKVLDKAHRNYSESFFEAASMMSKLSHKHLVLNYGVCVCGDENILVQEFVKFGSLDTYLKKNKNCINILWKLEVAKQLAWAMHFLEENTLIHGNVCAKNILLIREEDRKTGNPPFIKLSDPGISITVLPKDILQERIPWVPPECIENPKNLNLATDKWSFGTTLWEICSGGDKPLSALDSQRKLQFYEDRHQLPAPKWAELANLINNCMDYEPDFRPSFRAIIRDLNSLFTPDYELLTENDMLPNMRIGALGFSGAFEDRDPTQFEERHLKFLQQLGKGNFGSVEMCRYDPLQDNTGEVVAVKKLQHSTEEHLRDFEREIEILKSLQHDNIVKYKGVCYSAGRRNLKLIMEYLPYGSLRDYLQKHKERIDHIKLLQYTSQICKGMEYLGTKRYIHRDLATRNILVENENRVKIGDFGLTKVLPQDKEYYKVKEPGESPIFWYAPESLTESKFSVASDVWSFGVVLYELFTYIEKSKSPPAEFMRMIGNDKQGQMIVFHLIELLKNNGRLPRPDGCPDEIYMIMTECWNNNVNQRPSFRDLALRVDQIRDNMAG

Compound	Activity (Homo sapiens [1]) [%]	Activity [2] [%]	Activity [3] [%]	Activity [4] [%]	Activity [5] [%]	Activity [6] [%]	Activity [7] [%]	Activity [8] [%]	Activity [9] [%]	Activity [10] [%]	Activity [11] [%]	Activity [12] [%]	Activity [13] [%]	Activity (Homo sapiens [14]) [%]	Activity [15] [%]	Activity [16] [%]	Activity [17] [%]
COc1ccc2c(c1)c(/C=C1\C(=O)Nc3ccc(S(N)(=O)=O)cc31)cn2C	92	75	65	100	98	81	35	109	96	79	80	90	89	92	93	39	100
COc1ccc2[nH]cc(/C=C3\C(=O)Nc4ccc(S(N)(=O)=O)cc43)c2c1	70	49	72	96	108	84	59	101	101	95	85	91	64	88	93	12	93
CN(C)S(=O)(=O)c1ccc2c(c1)/C(=C/c1cn(C)c3ccc(O)cc13)C(=O)N2	92	81	62	94	103	96	94	104	105	43	87	78	92	87	93	92	96
Cn1cc(/C=C2\C(=O)Nc3ccc(S(N)(=O)=O)cc32)c2ccccc21	81	55	64	102	109	103	9	104	97	59	81	85	63	90	102	5	104
COc1ccc2c(c1)c(/C=C1\C(=O)Nc3ccc(S(=O)(=O)N(C)C)cc31)cn2C	85	80	81	104	100	85	100	102	93	85	90	88	88	87	83	99	97
CNS(=O)(=O)c1ccc2c(c1)/C(=C/c1cn(C)c3ccc(OC)cc13)C(=O)N2	83	81	45	108	97	102	93	99	98	74	94	89	95	96	92	75	99
